Patent US11020395B2, “Cycloalkyl substituted triazole compounds as agonists of the APJ receptor” (AMGEN INC., priority 2016, dated 2021)

Target: human APJ receptor (Homo sapiens (Human), UniProt P35414)
Experiment: [35S]GTPγS binding assay on membranes from CHO cells stably expressing human APJ receptor
Type: biochemical
Conditions: [35S]GTPγS SPA, read-out: Activity hAPJ SPA EC50 IP
Summary of the method: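 Membranes from CHO cells stably expressing FLAG-tagged human APJ were incubated with [35S]GTPγS in buffer with optimized GDP, MgCl2 and NaCl, 90 min at RT. EC50 values derived by non-linear regression, averaged over several independent experiments.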

human APJ receptor, sequence (P35414 whole entry): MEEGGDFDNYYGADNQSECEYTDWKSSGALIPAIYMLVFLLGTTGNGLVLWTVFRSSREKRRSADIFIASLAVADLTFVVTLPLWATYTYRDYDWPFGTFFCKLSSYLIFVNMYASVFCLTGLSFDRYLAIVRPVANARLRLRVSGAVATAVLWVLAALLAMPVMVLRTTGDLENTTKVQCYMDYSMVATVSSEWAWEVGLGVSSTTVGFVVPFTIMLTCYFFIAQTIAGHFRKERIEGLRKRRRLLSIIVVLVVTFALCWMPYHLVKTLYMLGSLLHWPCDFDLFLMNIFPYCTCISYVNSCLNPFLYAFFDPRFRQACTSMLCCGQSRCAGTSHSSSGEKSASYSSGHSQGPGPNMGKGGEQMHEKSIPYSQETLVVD

Row | Molecule | EC50
1 | COc1cccc(OC)c1-n1c(NS(=O)(=O)[C@@H](C)[C@@H](OC(C)C)c2ncc(C)cn2)nnc1[C@H]1C[C@@](C)(O)C1 (single isomer, unassigned) [Example 231.0, (1S,2S)-N-(4-(2,6-dimethoxyphenyl)-5-(trans-3-hydroxy-3-methylcyclobutyl)-4H-1,2,4-triazol-3-yl)-1-(5-methyl-2-pyrimidinyl)-1-(2-propanyloxy)-2-propanesulfonamide or (1S,2S)-N-(4-(2,6-dimethoxyphenyl)-5-(cis-3-hydroxy-3-methylcyclobutyl)-4H-1,2,4-triazol-3-yl)-1-(5-methyl-2-pyrimidinyl)-1-(2-propanyloxy)-2-propanesulfonamide] | 220 nM
2 | (2S,3R)-3-(5-chloropyrimidin-2-yl)-N-(5-((R)-2,2-difluorocyclopropyl)-4-(2,6-dimethoxyphenyl)-4H-1,2,4-triazol-3-yl)butane-2-sulfonamide or (2S,3R)-3-(5-chloropyrimidin-2-yl)-N-(5-((S)-2,2-difluorocyclopropyl)-4-(2,6-dimethoxyphenyl)-4H-1,2,4-triazol-3-yl)butane-2-sulfonamide [Example 220.0] | 39 nM
3 | CO[C@H](c1ncc(Cl)cn1)[C@H](C)S(=O)(=O)Nc1nnc([C@H]2C[C@H](CO)C2)n1C(C)C (single isomer, unassigned) [Example 137.0, (1R,2S)-1-(5-chloro-2-pyrimidinyl)-N-(5-(trans-3-(hydroxymethyl)cyclobutyl)-4-(2-propanyl)-4H-1,2,4-triazol-3-yl)-1-methoxy-2-propanesulfonamide or (1R,2S)-1-(5-chloro-2-pyrimidinyl)-N-(5-(cis-3-(hydroxymethyl)cyclobutyl)-4-(2-propanyl)-4H-1,2,4-triazol-3-yl)-1-methoxy-2-propanesulfonamide] | 340 nM
4 | COc1ncnc(OC)c1-n1c(NS(=O)(=O)[C@@H](C)[C@H](C)c2ncc(C)cn2)nnc1C1CC1 [Example 3.0, (2S,3R)-N-(5-cyclopropyl-4-(4,6-dimethoxy-5-pyrimidinyl)-4H-1,2,4-triazol-3-yl)-3-(5-methyl-2-pyrimidinyl)-2-butanesulfonamide] | 56 nM
5 | COc1ncnc(OC)c1-n1c(NS(=O)(=O)[C@@H](C)[C@H](OC)c2ncc(Cl)cn2)nnc1C1CC(Cl)(Cl)C1 [Example 203.0, (1R,2S)-1-(5-chloropyrimidin-2-yl)-N-(5-(3,3-dichlorocyclobutyl)-4-(4,6-dimethoxypyrimidin-5-yl)-4H-1,2,4-triazol-3-yl)-1-methoxypropane-2-sulfonamide] | 10 nM
6 | COc1cccc(OC)c1-n1c(NS(=O)(=O)[C@@H](C)[C@H](OC)c2ncc(Cl)cn2)nnc1C1CCC1 [Example 93.0, (1R,2S)-1-(5-chloropyrimidin-2-yl)-N-(5-cyclobutyl-4-(2,6-dimethoxyphenyl)-4H-1,2,4-triazol-3-yl)-1-methoxypropane-2-sulfonamide] | 0.91 nM
7 | COc1ncnc(OC)c1-n1c(NS(=O)(=O)[C@@H](C)[C@H](OC)c2ncc(Cl)cn2)nnc1[C@H]1CC[C@@H]1F (single isomer, unassigned) [Example 181.0, (1R,2S)-1-(5-chloropyrimidin-2-yl)-N-(4-(4,6-dimethoxypyrimidin-5-yl)-5-((1R,2S)-2-fluorocyclobutyl)-4H-1,2,4-triazol-3-yl)-1-methoxypropane-2-sulfonamide or (1R,2S)-1-(5-chloropyrimidin-2-yl)-N-(4-(4,6-dimethoxypyrimidin-5-yl)-5-((1S,2R)-2-fluorocyclobutyl)-4H-1,2,4-triazol-3-yl)-1-methoxypropane-2-sulfonamide] | 32 nM
8 | COc1cccc(OC)c1-n1c(NS(=O)(=O)[C@@H](C)[C@H](C)c2ncc(Cl)cn2)nnc1C1(c2ccccn2)CC1 [Example 125.0] | 400 nM
9 | COc1cccc(OC)c1-n1c(NS(=O)(=O)[C@@H](C)[C@@H](OC(C)C)c2ncc(C)cn2)nnc1[C@@H]1CCC(=O)C1 (single isomer, unassigned) [Example 230.0, (1S,2S)-N-(4-(2,6-dimethoxyphenyl)-5-((R)-3-oxocyclopentyl)-4H-1,2,4-triazol-3-yl)-1-isopropoxy-1-(5-methylpyrimidin-2-yl)propane-2-sulfonamide or (1S,2S)-N-(4-(2,6-dimethoxyphenyl)-5-((S)-3-oxocyclopentyl)-4H-1,2,4-triazol-3-yl)-1-isopropoxy-1-(5-methylpyrimidin-2-yl)propane-2-sulfonamide] | 190 nM
10 | COc1ncnc(OC)c1-n1c(NS(=O)(=O)[C@@H](C)[C@H](OC)c2ncc(Cl)cn2)nnc1C1CC1 [Example 24.0, (1R,2S)-1-(5-chloropyrimidin-2-yl)-N-(5-cyclopropyl-4-(4,6-dimethoxypyrimidin-5-yl)-4H-1,2,4-triazol-3-yl)-1-methoxypropane-2-sulfonamide] | 11 nM
11 | COc1cccc(OC)c1-n1c(NS(=O)(=O)[C@@H](C)[C@@H](OC(C)C)c2ncc(C)cn2)nnc1C1CCC1 [Example 142.0] | 5.1 nM
12 | COc1cccc(OC)c1-n1c(NS(=O)(=O)[C@@H](C)[C@H](OC)c2ncc(Cl)cn2)nnc1[C@H]1C[C@H](C)C1 [Example 148.0, (1R,2S)-1-(5-chloropyrimidin-2-yl)-N-(4-(2,6-dimethoxyphenyl)-5-((1r,3S)-3-methylcyclobutyl)-4H-1,2,4-triazol-3-yl)-1-methoxypropane-2-sulfonamide and (1R,2S)-1-(5-chloropyrimidin-2-yl)-N-(4-(2,6-dimethoxyphenyl)-5-((1r,3R)-3-methylcyclobutyl)-4H-1,2,4-triazol-3-yl)-1-methoxypropane-2-sulfonamide] | 1.1 nM
13 | COc1ncnc(OC)c1-n1c(NS(=O)(=O)[C@@H](C)[C@@H](OC(C)C)c2ncc(Cl)cn2)nnc1[C@@H]1CC[C@@H]1C(F)F (single isomer, unassigned) [Example 168.0, (1S,2S)-1-(5-chloropyrimidin-2-yl)-N-(5-((1R,2S)-2-(difluoromethyl)cyclobutyl)-4-(4,6-dimethoxypyrimidin-5-yl)-4H-1,2,4-triazol-3-yl)-1-isopropylpropane-2-sulfonamide or (1S,2S)-1-(5-chloropyrimidin-2-yl)-N-(5-((1S,2R)-2-(difluoromethyl)cyclobutyl)-4-(4,6-dimethoxypyrimidin-5-yl)-4H-1,2,4-triazol-3-yl)-1-isopropoxypropane-2-sulfonamide] | 8 nM
14 | COc1cccc(OC)c1-n1c(NS(=O)(=O)[C@@H](C)[C@H](OC)c2ncc(Cl)cn2)nnc1C1CCC1C#N (single isomer, unassigned) [Example 169.0, (1R,2S)-1-(5-chloropyrimidin-2-yl)-N-(5-((1R,2S)-2-cyanocyclobutyl)-4-(2,6-dimethoxyphenyl)-4H-1,2,4-triazol-3-yl)-1-methoxypropane-2-sulfonamide or (1R,2S)-1-(5-chloropyrimidin-2-yl)-N-(5-((1S,2R)-2-cyanocyclobutyl)-4-(2,6-dimethoxyphenyl)-4H-1,2,4-triazol-3-yl)-1-methoxypropane-2-sulfonamide] | 21 nM
15 | (1R,2S)-1-(5-chloropyrimidin-2-yl)-N-(4-(4,6-dimethoxypyrimidin-5-yl)-5-((R)-spiro[2.2]pentan-1-yl)-4H-1,2,4-triazol-3-yl)-1-methoxypropane-2-sulfonamide or (1R,2S)-1-(5-chloropyrimidin-2-yl)-N-(4-(4,6-dimethoxypyrimidin-5-yl)-5-((S)-spiro[2.2]pentan-1-yl)-4H-1,2,4-triazol-3-yl)-1-methoxypropane-2-sulfonamide [Example 106.0] | 19 nM
16 | COc1ncnc(OC)c1-n1c(NS(=O)(=O)[C@@H](C)[C@H](OC)c2ncc(Cl)cn2)nnc1[C@H]1CC[C@@H]1C (single isomer, unassigned) [Example 187.0, (1R,2S)-1-(5-chloropyrimidin-2-yl)-N-(4-(4,6-dimethoxypyrimidin-5-yl)-5-((1S,2S)-2-methylcyclobutyl)-4H-1,2,4-triazol-3-yl)-1-methoxypropane-2-sulfonamide or (1R,2S)-1-(5-chloropyrimidin-2-yl)-N-(4-(4,6-dimethoxypyrimidin-5-yl)-5-((1R,2R)-2-methylcyclobutyl)-4H-1,2,4-triazol-3-yl)-1-methoxypropane-2-sulfonamide] | 8.8 nM
17 | (1R,2S)-1-(5-chloropyrimidin-2-yl)-N-(4-(4,6-dimethoxypyrimidin-5-yl)-5-((R)-6-oxaspiro[2.5]octan-1-yl)-4H-1,2,4-triazol-3-yl)-1-methoxypropane-2-sulfonamide or (1R,2S)-1-(5-chloropyrimidin-2-yl)-N-(4-(4,6-dimethoxypyrimidin-5-yl)-5-((S)-6-oxaspiro[2.5]octan-1-yl)-4H-1,2,4-triazol-3-yl)-1-methoxypropane-2-sulfonamide [Example 103.0] | 39 nM
18 | (1R,2S)-1-(5-chloropyrimidin-2-yl)-N-(4-(4,6-dimethoxypyrimidin-5-yl)-5-((R)-spiro[2.2]pentan-1-yl)-4H-1,2,4-triazol-3-yl)-1-methoxypropane-2-sulfonamideor (1R,2S)-1-(5-chloropyrimidin-2-yl)-N-(4-(4,6-dimethoxypyrimidin-5-yl)-5-((S)-spiro[2.2]pentan-1-yl)-4H-1,2,4-triazol-3-yl)-1-methoxypropane-2-sulfonamide [Example 105.0] | 0.92 nM
19 | COc1cccc(OC)c1-n1c(NS(=O)(=O)[C@@H](C)[C@H](OC)c2ncc(C)cn2)nnc1[C@H]1C[C@H](Cl)C1 (single isomer, unassigned) [Example 192.0, (1R,2S)-N-(5-((1r,3S)-3-chlorocyclobutyl)-4-(2,6-dimethoxyphenyl)-4H-1,2,4-triazol-3-yl)-1-methoxy-1-(5-methylpyrimidin-2-yl)propane-2-sulfonamide or (1R,2S)-N-(5-((1s,3R)-3-chlorocyclobutyl)-4-(2,6-dimethoxyphenyl)-4H-1,2,4-triazol-3-yl)-1-methoxy-1-(5-methylpyrimidin-2-yl)propane-2-sulfonamide] | 2.9 nM
20 | COc1cccc(OC)c1-n1c(NS(=O)(=O)[C@@H](C)[C@@H](OC(C)C)c2ncc(C)cn2)nnc1[C@@H]1CCC[C@@H]1OC (single isomer, unassigned) [Example 234.0] | 12 nM
